PMC8286840, “Identifying SARS-CoV-2 antiviral compounds by screening for small molecule inhibitors of Nsp3 papain-like protease” (Biochemical Journal, 2021)
Structures can show the parent of a compound that is named as a salt. Where two headings read alike, the source gives them in different places. Where a SMILES comes first, the peptide text is derived from it.

Key:
[1] = biological target: T1, SARS-CoV-2 PLpro (nsp3 1564–1878) (Severe acute respiratory syndrome coronavirus 2, UniProt P0DTD1); assay: biochemical; design: FRET-quenched peptide (Pro3) cleavage by PLpro, 10 min pre-incubation, slope over 20 min, normalised to no-compound control; details: read-out: % of control remaining
[2] = biological target: T1, SARS-CoV-2 PLpro (nsp3 1564–1878); assay: biochemical; design: FRET-quenched peptide (Pro3) cleavage by PLpro, 10 min pre-incubation, slope over 20 min, normalised to no-compound control; details: read-out: % of control remaining; remark: listed apart in the source

SMILES: CC(C)(F)C[C@H](N[C@@H](c1ccc(-c2ccc(S(C)(=O)=O)cc2)cc1)C(F)(F)F)C(=O)NC1(C#N)CC1 [Odanacatib (MK-0822)]
- remaining activity at 3.75 µM ([1]; Well no.=8836, high concentration screen): 92.8%
- remaining activity at 1.25 µM ([2]; Well no.=8836, low concentration screen): 88.7%

SMILES: CC1COc2c(N3CCN(C)CC3)c(F)cc3c(=O)c(C(=O)O)cn1c23 (stereo not drawn) [Ofloxacin]
- remaining activity at 3.75 µM ([1]; Well no.=898, high concentration screen): 105%
- remaining activity at 3.75 µM ([1]; Well no.=2047, high concentration screen): 104%
- remaining activity at 1.25 µM ([2]; Well no.=898, low concentration screen): 106%
- remaining activity at 1.25 µM ([2]; Well no.=2047, low concentration screen): 104%

SMILES: N[C@@H](CCC(=O)O)C(=O)N[C@@H](Cc1c[nH]c2ccccc12)C(=O)O [Oglufanide] (H-Glu-Trp-OH)
- remaining activity at 3.75 µM ([1]; Well no.=8604, high concentration screen): 101%
- remaining activity at 1.25 µM ([2]; Well no.=8604, low concentration screen): 107%

SMILES: Cc1cc2c(s1)Nc1ccccc1N=C2N1CCN(C)CC1 [Olanzapine]
- remaining activity at 3.75 µM ([1]; Well no.=1828, high concentration screen): 95.2%
- remaining activity at 3.75 µM ([1]; Well no.=8193, high concentration screen): 111%
- remaining activity at 1.25 µM ([2]; Well no.=1828, low concentration screen): 93.3%
- remaining activity at 1.25 µM ([2]; Well no.=8193, low concentration screen): 106%

SMILES: CC1(C)CC[C@]2(C(=O)O)CC[C@]3(C)C(=CC[C@@H]4[C@@]5(C)CC[C@H](O)C(C)(C)[C@@H]5CC[C@]43C)[C@@H]2C1 [Oleanolic acid]
- remaining activity at 3.75 µM ([1]; Well no.=3448, high concentration screen): 91.6%
- remaining activity at 3.75 µM ([1]; Well no.=6443, high concentration screen): 96.8%
- remaining activity at 1.25 µM ([2]; Well no.=3448, low concentration screen): 96.1%
- remaining activity at 1.25 µM ([2]; Well no.=6443, low concentration screen): 95.4%

SMILES: CCCCCCCC/C=C\CCCCCCCC(=O)O [Oleic Acid]
- remaining activity at 3.75 µM ([1]; Well no.=848, high concentration screen): 101%
- remaining activity at 3.75 µM ([1]; Well no.=7347, high concentration screen): 104%
- remaining activity at 1.25 µM ([2]; Well no.=848, low concentration screen): 102%

SMILES: CCCCCCCC/C=C\CCCCCCCC(=O)NCCc1ccc(O)c(O)c1 [Oleoyl dopamine]
- remaining activity at 3.75 µM ([1]; Well no.=4539, high concentration screen): 100%
- remaining activity at 1.25 µM ([2]; Well no.=4539, low concentration screen): 95.5%

SMILES: CC[C@@H]1/C=C/C=C/C[C@H](C)[C@H](O)[C@](C)(O)C(=O)[C@H](C)[C@@H](O)[C@H](C)C(=O)[C@H](C)[C@@H](O)[C@H](C)/C=C/C(=O)O[C@H]2[C@@H](C)[C@@H](CC1)O[C@@]1(CC[C@@H](C)[C@@H](C[C@H](C)O)O1)[C@@H]2C [Oligomycin A]
- remaining activity at 3.75 µM ([1]; Well no.=850, high concentration screen): 103%
- remaining activity at 3.75 µM ([1]; Well no.=3423, high concentration screen): 96.5%
- remaining activity at 1.25 µM ([2]; Well no.=850, low concentration screen): 105%
- remaining activity at 1.25 µM ([2]; Well no.=3423, low concentration screen): 98.1%

SMILES: CCCc1nc(C(C)(C)O)c(C(=O)OCc2oc(=O)oc2C)n1Cc1ccc(-c2ccccc2-c2nnn[nH]2)cc1 [Olmesartan (medoxomil)]
- remaining activity at 3.75 µM ([1]; Well no.=7579, high concentration screen): 92.2%
- remaining activity at 1.25 µM ([2]; Well no.=7579, low concentration screen): 98.2%

SMILES: CCCc1nc(C(C)(C)O)c(C(=O)O)n1Cc1ccc(-c2ccccc2-c2nnn[nH]2)cc1 [Olmesartan]
- remaining activity at 3.75 µM ([1]; Well no.=1794, high concentration screen): 95.4%
- remaining activity at 3.75 µM ([1]; Well no.=7669, high concentration screen): 99%
- remaining activity at 1.25 µM ([2]; Well no.=1794, low concentration screen): 94.8%
- remaining activity at 1.25 µM ([2]; Well no.=7669, low concentration screen): 100%

SMILES: COc1ccc2c(c1OCc1ccccc1)C[C@@H](C(=O)O)N(C(=O)C(c1ccccc1)c1ccccc1)C2 [Olodanrigan]
- remaining activity at 3.75 µM ([1]; Well no.=8122, high concentration screen): 99.4%
- remaining activity at 1.25 µM ([2]; Well no.=8122, low concentration screen): 100%

SMILES: Cn1cnc2c(NCc3ccccc3)nc(NCCO)nc21 [Olomoucine - 6-(Benzylamino)-2-(2-hydroxyethylamino)-9-methylpurine]
- remaining activity at 3.75 µM ([1]; Well no.=2382, high concentration screen): 102%
- remaining activity at 1.25 µM ([2]; Well no.=2382, low concentration screen): 101%

SMILES: CC[C@H](CO)Nc1nc(NCc2ccccc2O)c2ncn(C(C)C)c2n1 [Olomoucine II]
- remaining activity at 3.75 µM ([1]; Well no.=2523, high concentration screen): 102%
- remaining activity at 1.25 µM ([2]; Well no.=2523, low concentration screen): 99.8%

SMILES: Cn1cnc2c(NCc3ccccc3)nc(NCCO)nc21 [Olomoucine]
- remaining activity at 3.75 µM ([1]; Well no.=800, high concentration screen): 98.3%
- remaining activity at 1.25 µM ([2]; Well no.=800, low concentration screen): 96.5%

SMILES: CN(C)CC/C=C1/c2ccccc2COc2ccc(CC(=O)O)cc21 [Olopatadine (hydrochloride)]
- remaining activity at 3.75 µM ([1]; Well no.=8201, high concentration screen): 102%
- remaining activity at 1.25 µM ([2]; Well no.=8201, low concentration screen): 104%

SMILES: O=C(O)c1cc(/N=N/c2ccc(O)c(C(=O)O)c2)ccc1O [Olsalazine (Disodium)]
- remaining activity at 3.75 µM ([1]; Well no.=7496, high concentration screen): 92.2%
- remaining activity at 1.25 µM ([2]; Well no.=7496, low concentration screen): 93.9%

SMILES: O=C(O)c1cc(/N=N/c2ccc(O)c(C(=O)O)c2)ccc1O [Olsalazine Sodium]
- remaining activity at 3.75 µM ([1]; Well no.=4688, high concentration screen): 97.9%
- remaining activity at 1.25 µM ([2]; Well no.=4688, low concentration screen): 101%

SMILES: Cc1c(-c2cnccn2)ssc1=S [Oltipraz]
- remaining activity at 3.75 µM ([1]; Well no.=2049, high concentration screen): 112%
- remaining activity at 1.25 µM ([2]; Well no.=2049, low concentration screen): 109%

SMILES: CCCCCCCC/C=C\CCCCCCCC(=O)NCc1ccc(O)c(OC)c1 [Olvanil]
- remaining activity at 3.75 µM ([1]; Well no.=5771, high concentration screen): 90%
- remaining activity at 1.25 µM ([2]; Well no.=5771, low concentration screen): 94.2%

SMILES: O=C(N[C@H]1CCS[C@H]2CCC[C@@H](C(=O)O)N2C1=O)[C@@H](S)Cc1ccccc1 [Omapatrilat]
- remaining activity at 3.75 µM ([1]; Well no.=8466, high concentration screen): 95%
- remaining activity at 1.25 µM ([2]; Well no.=8466, low concentration screen): 99.9%

SMILES: CS(=O)(=O)n1cc2c(n1)CN([C@H]1CO[C@H](c3cc(F)ccc3F)[C@@H](N)C1)C2 [Omarigliptin (MK-3102)]
- remaining activity at 3.75 µM ([1]; Well no.=8824, high concentration screen): 96.5%
- remaining activity at 1.25 µM ([2]; Well no.=8824, low concentration screen): 98.1%

SMILES: COc1ccc2[nH]c([S+]([O-])Cc3ncc(C)c(OC)c3C)nc2c1 (stereo not drawn) [Omeprazole]
- remaining activity at 3.75 µM ([1]; Well no.=2051, high concentration screen): 101%
- remaining activity at 1.25 µM ([2]; Well no.=2051, low concentration screen): 101%

SMILES: O=Cc1cn(Cc2ccc(Cl)cc2)c2ccccc12 [Oncrasin-1]
- remaining activity at 3.75 µM [1]: 101%
- remaining activity at 1.25 µM [2]: 95.2%

SMILES: Cc1nccn1CC1CCc2c(c3ccccc3n2C)C1=O (stereo not drawn) [Ondansetron]
- remaining activity at 3.75 µM ([1]; Well no.=2104, high concentration screen): 102%
- remaining activity at 1.25 µM ([2]; Well no.=2104, low concentration screen): 102%

SMILES: OCCN1CCN(CCCN2c3ccccc3C=Cc3ccccc32)CC1 [Opipramol dihydrochloride]
- remaining activity at 3.75 µM ([1]; Well no.=5510, high concentration screen): 101%
- remaining activity at 1.25 µM ([2]; Well no.=5510, low concentration screen): 97.5%

SMILES: COC[C@H](NC(=O)c1cnc(C)s1)C(=O)N[C@@H](COC)C(=O)N[C@@H](Cc1ccccc1)C(=O)[C@@]1(C)CO1 [Oprozomib (ONX 0912)]
- remaining activity at 3.75 µM ([1]; Well no.=4976, high concentration screen): 89.5%
- remaining activity at 1.25 µM ([2]; Well no.=4976, low concentration screen): 90.1%

SMILES: COc1ccc(-c2cccc(C(=O)N(C)C)c2)cc1S(=O)(=O)Nc1cccc(NCCNC(=O)c2cccc(C)c2)c1 [Orexin 2 Receptor Agonist]
- remaining activity at 3.75 µM ([1]; Well no.=6951, high concentration screen): 103%
- remaining activity at 1.25 µM ([2]; Well no.=6951, low concentration screen): 105%

SMILES: CCc1c(C(=O)NCCc2ccc(N3CCCCC3)cc2)[nH]c2ccc(Cl)cc12 [Org 27569]
- remaining activity at 3.75 µM ([1]; Well no.=6238, high concentration screen): 105%
- remaining activity at 1.25 µM ([2]; Well no.=6238, low concentration screen): 103%

SMILES: C=C1C(=O)[C@]23[C@H](O)[C@H]1CC[C@H]2[C@@]12CO[C@]3(O)[C@@H](O)[C@@H]1C(C)(C)CC[C@@H]2O [Oridonin]
- remaining activity at 3.75 µM ([1]; Well no.=3255, high concentration screen): 103%
- remaining activity at 1.25 µM ([2]; Well no.=3255, low concentration screen): 101%

SMILES: CCCCCCCCCCC[C@@H](C[C@@H]1OC(=O)[C@H]1CCCCCC)OC(=O)[C@H](CC(C)C)NC=O [Orlistat]
- remaining activity at 3.75 µM ([1]; Well no.=7366, high concentration screen): 101%
- remaining activity at 1.25 µM ([2]; Well no.=7366, low concentration screen): 101%

SMILES: Cc1ncc([N+](=O)[O-])n1CC(O)CCl (stereo not drawn) [Ornidazole]
- remaining activity at 3.75 µM ([1]; Well no.=4939, high concentration screen): 97.6%
- remaining activity at 1.25 µM ([2]; Well no.=4939, low concentration screen): 101%

SMILES: O=C(O)c1cc(=O)[nH]c(=O)[nH]1 [Orotic acid (6-Carboxyuracil)]
- remaining activity at 3.75 µM ([1]; Well no.=8146, high concentration screen): 98.3%
- remaining activity at 1.25 µM ([2]; Well no.=8146, low concentration screen): 105%
